Results as given in patent US9708293B2, “N-(pyridin-2-yl)pyrimidin-4-amine derivatives containing a sulfone group” (BAYER PHARMA AKTIENGESELLSCHAFT, priority 2012, dated 2017).

Assays:
[1] = test system: DU145 cells; test: Proliferation assay, DU145; type: cell-based; conditions: Homo sapiens, DU-145, 96 h; 4 days, crystal violet; read-out: Inhibition of DU145 cell proliferation IC50
Method: (§1) Cultivated tumour cells (HeLa, human cervical tumour cells, ATCC CCL-2; NCI-H460, human non-small cell lung carcinoma cells, ATCC HTB-177; A2780, human ovarian carcinoma cells, ECACC #93112519; DU 145, hormone-independent human prostate carcinoma cells, ATCC HTB-81; HeLa-MaTu-ADR, multidrug-resistant human cervical carcinoma cells, EPO-GmbH Berlin; Caco-2, human colorectal carcinoma cells, ATCC HTB-37; B16F10, mouse melanoma cells, ATCC CRL-6475) were plated at a density of 5,000 cells/well (DU145, HeLa-MaTu-ADR), 3,000 cells/well (NCI-H460, HeLa), 2,500 cells/well (A2780), 1,500 cells/well (Caco-2), or 1,000 cells/well (B16F10) in a 96-well multititer plate in 200 μL of their respective growth medium supplemented 10% fetal calf serum. After 24 hours, the cells of one plate (zero-point plate) were stained with crystal violet (see below), while the medium of the other plates was replaced by fresh culture medium (200 μl), to which the test substances were added in various concentrations (0 μM, as well as in the range of 0.001-10 μM; the final concentration of the solvent dimethyl sulfoxide was 0.5%). The cells were incubated for 4 days in the presence of test substances. Cell proliferation was determined by staining the cells with crystal violet: the cells were fixed by adding 20 μl/measuring point of an 11% glutaric aldehyde solution for 15 minutes at room temperature. After three washing cycles of the fixed cells with water, the plates were dried at room temperature. The cells were stained by adding 100 μl/measuring point of a 0.1% crystal violet solution (pH 3.0). After three washing cycles of the stained cells with water, the plates were dried at room temperature. The dye was dissolved by adding 100 μl/measuring point of a 10% acetic acid solution. The extinction was determined by photometry at a wavelength of 595 nm. The change of cell number, in percent, was calculated by normalization of the measured values to the extinction values of the zero-point plate (=0%) and the extinction of the untreated (0 μm) cells (=100%). […]

[2] = test system: B16F10 cells; test: Proliferation assay, B16F10; type: cell-based; conditions: Mus musculus, B16-F10, 96 h; 4 days, crystal violet; read-out: Inhibition of B16F10 cell proliferation IC50
Method: as §1

[3] = molecular target: T1, CDK9/CycT1 (Homo sapiens, UniProt P50750); test: CDK9/CycT1 kinase assay (Method 1a); type: biochemical; conditions: 10 μM ATP
T1 construct: Recombinant full-length His-tagged human CDK9 and CycT1; His; purchased Invitrogen PV4131; host or cells: insect cells
Description: 1a. CDK9/CycT1 Kinase Assay:
CDK9/CycT1—inhibitory activity of compounds of the present invention was quantified employing the CDK9/CycT1 TR-FRET assay as described in the following paragraphs:
Recombinant full-length His-tagged human CDK9 and CycT1, expressed in insect cells and purified by Ni-NTA affinity chromatography, were purchased from Invitrogen (Cat. No PV4131). As substrate for the kinase reaction biotinylated peptide biotin-Ttds-YISPLKSPYKISEG (C-terminus in amid form) was used which can be purchased e.g. form the company JERINI Peptide Technologies (Berlin, Germany). For the assay 50 nl of a 100 fold concentrated solution of the test compound in DMSO was pipetted into a black low volume 384 well microtiter plate (Greiner Bio-One, Frickenhausen, Germany), 2 μl of a solution of CDK9/CycT1 in aqueous assay buffer [50 mM Tris/HCl pH 8.0, 10 mM MgCl2, 1.0 mM dithiothreitol, 0.1 mM sodium ortho-vanadate, 0.01% (v/v) Nonidet-P40 (Sigma)] were added and the mixture was incubated for 15 min at 22° C. to allow pre-binding of the test compounds to the enzyme before the start of the kinase reaction. Then the kinase reaction was started by the addition of 3 μl of a solution of adenosine-tri-phosphate (ATP, 16.7 μM=>final conc. in the 5 μl assay volume is 10 μM) and substrate (1.67 μM=>final conc. in the 5 μl assay volume is 1 μM) in assay buffer and the resulting mixture was incubated for a reaction time of 25 min at 22° C. […]
The resulting mixture was incubated 1 h at 22° C. to allow the formation of complex between the phosphorylated biotinylated peptide and the detection reagents. Subsequently the amount of phosphorylated substrate was evaluated by measurement of the resonance energy transfer from the Eu-chelate to the streptavidine-XL. Therefore, the fluorescence emissions at 620 nm and 665 nm after excitation at 350 nm was measured in a HTRF reader, e.g. a Rubystar (BMG Labtechnologies, Offenburg, Germany) or a Viewlux (Perkin-Elmer). […]

[4] = test system: A2780 cells; test: Proliferation assay, A2780; type: cell-based; conditions: Homo sapiens, A2780, 96 h; 4 days, crystal violet; read-out: Inhibition of A2780 cell proliferation IC50
Method: Cultivated tumour cells (HeLa, human cervical tumour cells, ATCC CCL-2; NCI-H460, human non-small cell lung carcinoma cells, ATCC HTB-177; A2780, human ovarian carcinoma cells, ECACC #93112519; DU 145, hormone-independent human prostate carcinoma cells, ATCC HTB-81; HeLa-MaTu-ADR, multidrug-resistant human cervical carcinoma cells, EPO-GmbH Berlin; Caco-2, human colorectal carcinoma cells, ATCC HTB-37; B16F10, mouse melanoma cells, ATCC CRL-6475) were plated at a density of 5,000 cells/well (DU145, HeLa-MaTu-ADR), 3,000 cells/well (NCI-H460, HeLa), 2,500 cells/well (A2780), 1,500 cells/well (Caco-2), or 1,000 cells/well (B16F10) in a 96-well multititer plate in 200 μL of their respective growth medium supplemented 10% fetal calf serum. […] Cell proliferation was determined by staining the cells with crystal violet: the cells were fixed by adding 20 μl/measuring point of an 11% glutaric aldehyde solution for 15 minutes at room temperature. […] The extinction was determined by photometry at a wavelength of 595 nm. The change of cell number, in percent, was calculated by normalization of the measured values to the extinction values of the zero-point plate (=0%) and the extinction of the untreated (0 μm) cells (=100%). […]

[5] = test system: Caco-2 cells; test: Proliferation assay, Caco-2; type: cell-based; conditions: Homo sapiens, Caco-2, 96 h; 4 days, crystal violet; read-out: Inhibition of Caco-2 cell proliferation IC50
Method: as §1

T1 sequence (P50750 whole entry): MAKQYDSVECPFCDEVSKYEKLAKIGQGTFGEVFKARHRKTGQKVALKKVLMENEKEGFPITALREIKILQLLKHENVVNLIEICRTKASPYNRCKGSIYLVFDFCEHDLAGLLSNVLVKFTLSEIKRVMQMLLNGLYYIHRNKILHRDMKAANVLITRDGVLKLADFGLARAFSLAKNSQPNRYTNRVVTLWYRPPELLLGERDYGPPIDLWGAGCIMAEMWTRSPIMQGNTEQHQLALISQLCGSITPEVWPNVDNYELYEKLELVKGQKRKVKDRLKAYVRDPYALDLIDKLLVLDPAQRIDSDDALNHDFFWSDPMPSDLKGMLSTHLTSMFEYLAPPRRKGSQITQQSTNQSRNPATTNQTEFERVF
T1 sequence (O60563 whole entry partner): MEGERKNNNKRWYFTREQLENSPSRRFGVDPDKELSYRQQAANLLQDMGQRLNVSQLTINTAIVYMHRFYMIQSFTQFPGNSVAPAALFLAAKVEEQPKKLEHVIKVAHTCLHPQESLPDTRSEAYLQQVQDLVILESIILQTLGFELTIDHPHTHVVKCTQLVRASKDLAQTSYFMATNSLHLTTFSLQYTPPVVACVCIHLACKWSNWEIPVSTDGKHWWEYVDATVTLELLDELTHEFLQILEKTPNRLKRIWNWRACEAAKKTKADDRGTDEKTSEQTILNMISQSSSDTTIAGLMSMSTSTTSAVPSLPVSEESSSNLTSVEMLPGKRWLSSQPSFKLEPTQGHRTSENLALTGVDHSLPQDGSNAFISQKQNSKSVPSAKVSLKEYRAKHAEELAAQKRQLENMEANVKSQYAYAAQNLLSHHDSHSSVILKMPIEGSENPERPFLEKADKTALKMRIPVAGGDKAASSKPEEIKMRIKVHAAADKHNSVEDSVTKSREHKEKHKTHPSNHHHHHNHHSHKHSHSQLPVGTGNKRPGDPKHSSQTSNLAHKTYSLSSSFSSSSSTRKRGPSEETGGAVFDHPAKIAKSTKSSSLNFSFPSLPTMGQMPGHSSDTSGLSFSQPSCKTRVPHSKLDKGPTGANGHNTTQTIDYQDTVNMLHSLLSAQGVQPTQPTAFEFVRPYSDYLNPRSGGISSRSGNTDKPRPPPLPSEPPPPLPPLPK

| IC50 [1] [nM] | IC50 [2] [nM] | IC50 [3] [nM] | IC50 [4] [nM] | IC50 [5] [nM] | Structure (SMILES) |
| --- | --- | --- | --- | --- | --- |
| 195 | 289 | 3 | 65 | 341 | COc1cc(F)ccc1-c1cc(Nc2cc(CS(C)(=O)=O)ccn2)ncn1 [Example 1, 6-(4-Fluoro-2-methoxyphenyl)-N-{4-[(methylsulfonyl)methyl]pyridin-2-yl}pyrimidin-4-amine] |
| 75 | 101 | – | – | 91 | COc1cc(F)ccc1-c1cc(Nc2cc(CS(C)(=O)=O)cc(C)n2)ncn1 [Example 2, 6-(4-Fluoro-2-methoxyphenyl)-N-{6-methyl-4-[(methylsulfonyl)methyl]pyridin-2-yl}pyrimidin-4-amine] |
| 34 | 34 | 4 | 14 | 52 | COc1cc(F)ccc1-c1cc(Nc2cc(CS(C)(=O)=O)cc(C(F)(F)F)n2)ncn1 [Example 3, 6-(4-Fluoro-2-methoxyphenyl)-N-{4-[(methylsulfonyl)methyl]-6-(trifluoromethyl)pyridin-2-yl}pyrimidin-4-amine] |
| – | – | 3 | – | – | COc1cc(F)ccc1-c1cc(Nc2cc(CS(C)(=O)=O)cc(F)n2)ncn1 [Example 4, 6-(4-Fluoro-2-methoxyphenyl)-N-{6-fluoro-4-[(methylsulfonyl)methyl]pyridin-2-yl}pyrimidin-4-amine] |
